Data on two compounds can be found in paper PMC4770308, “Discovery of a Chemical Tool Inhibitor Targeting the Bromodomains of TRIM24 and BRPF” (Journal of Medicinal Chemistry, 2015).

One data set concerns the target T1, TRIM24 bromodomain (Homo sapiens, UniProt O15164).
T1 sequence (O15164 899-1004 limits assumed): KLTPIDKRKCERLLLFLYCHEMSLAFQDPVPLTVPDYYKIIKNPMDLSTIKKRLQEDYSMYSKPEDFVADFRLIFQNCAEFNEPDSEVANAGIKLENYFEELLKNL
Kind of data set: AlphaScreen assay, TRIM24 bromodomain. The format is binding. As to conditions: 6-methoxy (R2) analogues. The method, then:
However, the most interesting compounds of this series (3–5) also had 3–4 μM activity against TRIM24, which prompted us to explore this scaffold for the development of TRIM24 inhibitors (Table 1).

The target of data set [1] is T2, full length TRIM24 fused to GFP (Homo sapiens, UniProt O15164).
T2 sequence (O15164 1-1050): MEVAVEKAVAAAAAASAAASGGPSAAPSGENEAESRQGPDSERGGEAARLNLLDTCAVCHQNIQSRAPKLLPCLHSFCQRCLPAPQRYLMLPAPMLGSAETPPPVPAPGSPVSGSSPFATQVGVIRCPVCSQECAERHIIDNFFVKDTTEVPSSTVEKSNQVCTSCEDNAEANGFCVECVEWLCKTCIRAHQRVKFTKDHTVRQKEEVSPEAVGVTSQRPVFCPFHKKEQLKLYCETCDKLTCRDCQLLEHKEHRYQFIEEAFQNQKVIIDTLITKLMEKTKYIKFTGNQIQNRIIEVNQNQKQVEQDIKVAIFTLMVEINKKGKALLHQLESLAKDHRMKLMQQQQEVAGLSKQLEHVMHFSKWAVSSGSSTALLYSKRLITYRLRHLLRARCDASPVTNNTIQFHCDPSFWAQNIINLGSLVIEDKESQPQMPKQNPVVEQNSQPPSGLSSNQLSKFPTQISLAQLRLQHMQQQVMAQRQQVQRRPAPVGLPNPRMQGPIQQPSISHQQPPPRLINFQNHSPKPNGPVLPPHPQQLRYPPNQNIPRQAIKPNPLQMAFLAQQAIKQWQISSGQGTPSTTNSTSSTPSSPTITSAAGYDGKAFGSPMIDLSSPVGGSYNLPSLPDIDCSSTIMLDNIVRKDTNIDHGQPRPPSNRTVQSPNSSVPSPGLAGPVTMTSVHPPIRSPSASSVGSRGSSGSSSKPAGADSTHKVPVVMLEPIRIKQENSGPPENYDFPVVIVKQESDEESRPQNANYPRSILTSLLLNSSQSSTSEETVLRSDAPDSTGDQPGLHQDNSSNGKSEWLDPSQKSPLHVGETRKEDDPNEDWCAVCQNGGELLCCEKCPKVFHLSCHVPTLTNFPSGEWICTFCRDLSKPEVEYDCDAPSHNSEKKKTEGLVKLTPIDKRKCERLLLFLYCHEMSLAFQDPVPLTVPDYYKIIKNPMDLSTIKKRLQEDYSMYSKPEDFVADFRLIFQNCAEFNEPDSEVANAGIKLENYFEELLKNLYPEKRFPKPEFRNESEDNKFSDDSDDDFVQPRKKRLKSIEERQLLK
Kind of data set: FRAP assay, TRIM24. Type of data set: cell-based. Particulars: 1 μM, compared with N980F mutant.

Data set [2] addresses T3, triplicated BRPF1B bromodomain construct with nuclear localization signal (Homo sapiens, UniProt P55201).
T3 sequence (P55201 628-732 limits assumed): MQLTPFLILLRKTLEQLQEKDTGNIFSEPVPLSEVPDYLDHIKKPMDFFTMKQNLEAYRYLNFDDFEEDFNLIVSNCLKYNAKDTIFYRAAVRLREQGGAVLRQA
Kind of data set: FRAP assay, BRPF1B. Type of data set: cell-based. As to conditions: with SAHA.

The next data set addresses T4, BRD1 (BRPF2) bromodomain (Homo sapiens, UniProt O95696).
T4 sequence (O95696 562-666 limits assumed): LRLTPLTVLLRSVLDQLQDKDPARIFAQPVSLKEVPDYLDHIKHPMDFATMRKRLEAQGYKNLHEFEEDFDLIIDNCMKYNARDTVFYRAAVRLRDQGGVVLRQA
As to the kind of experiment: Isothermal titration calorimetry, BRD1. As to conditions: single binding site model. (ITC needs no label: the signal is the heat of the interaction.)

Data set [3] has as its target T5, BRPF1 bromodomain (BRPF1B) (Homo sapiens, UniProt P55201).
T5 sequence (P55201 628-732 limits assumed): T3 sequence (P55201 628-732 limits assumed)
Kind of data set: Isothermal titration calorimetry, BRPF1. Particulars: single binding site model.

In data set [4] the test system is panel of 45 human bromodomains. Kind of data set: Temperature shift assay, bromodomain selectivity panel. The format is binding. Particulars: 45 bromodomains; ΔTm smaller than 1 degree not considered significant.
The subject of data set [5] is panel of diverse cancer cell lines (MCF-7, RKO, MM1S, RCH-ACH, JJN-3). Kind of data set: Cytotoxicity assay (CellTiter-Glo), cancer cell line panel. Particulars: 72 hours, 5 x E-05 M to 8 x E-08 M. Type of data set: cell-based. The procedure:
(§1) A more comprehensive evaluation of the role of TRIM24 in cancer cell proliferation and chromatin biology would require the development of a tool compound with improved selectivity.
(§2) Calorimetric experiments were performed on a VPqITC microqcalorimeter (MicroCalTM, LLC Northampton, MA). Protein solutions were buffer exchanged by gel filtration or dialysis into buffer (20 mM Hepes pH 7.5, 150 mM NaCl, and 0.5 mM tris (2qcarboxyethyl) phosphine (TCEP)]. All measurements were carried out at 293.15 K while stirring at 286 rpm. The micro syringe was loaded with a protein solution of 250 µM, the compound solution was prepared at 20 µM and 2mL for the cell. All injections were performed using an initial injection of 2 µl followed by 34 injections of 8 µl with a duration of 16 sec per injection and a spacing of 240 sec between injection. The data were analysed with the MicroCal ORIGIN software package employing a single binding site model. The first data point was excluded from the analysis.
(§3) Thermodynamic parameters were calculated (∆G = ∆H q T∆S = qRTlnKB where ∆G, ∆H and ∆S are the changes in free energy, enthalpy and entropy of binding, respectively).
(§4) Temperature shift assays have been carried out as described in Fedorov et al. 2.
(§5) Fluorescence recovery after photobleaching (FRAP)
(§6) The TRIM24 FRAP assay has been carried out as described in Philpott et al.3. […]
On the technique in general: In ATP-based viability assays light output follows the ATP content of the culture.

Data set [6] relates to MCF-7 breast cancer cell line. As to the kind of experiment: Cytotoxicity assay (CellTiter-Glo), MCF-7. The format is cell-based. As to conditions: 72 hours, concentration range tested. The procedure:
as §1, §2, §3, §4, §5, §6

Data set [7] has as its target T6, PHD/bromodomain of TRIM24 (Homo sapiens, UniProt O15164).
T6 construct: His6 (N, cleaved yes); SUMO-1 (N, cleaved yes); made in house; host or cells: E. coli BL21(DE3)-R3-pRARE2
T6 sequence (O15164 825-1006): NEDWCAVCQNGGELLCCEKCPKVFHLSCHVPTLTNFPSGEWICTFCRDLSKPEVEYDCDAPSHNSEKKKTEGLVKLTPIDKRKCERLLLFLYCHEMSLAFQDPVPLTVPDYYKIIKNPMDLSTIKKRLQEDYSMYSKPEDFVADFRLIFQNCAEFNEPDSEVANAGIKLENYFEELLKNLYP
As to the kind of experiment: Isothermal titration calorimetry, TRIM24. As to conditions: single binding site model.

Take `COc1cc2c(cc1NS(=O)(=O)c1ccc(Br)cc1C)n(C)c(=O)n2C` [Compound 8]: the “activity against TRIM24 (in words)” value at TRIM24 bromodomain is “lost activity against TRIM24”.

With `COc1ccc(Oc2cc3c(cc2NS(=O)(=O)c2ccc(OC)c(OC)c2)n(C)c(=O)n3C)cc1` [Compound 34], the “fluorescent recovery half-time, TRIM24 FRAP (in words)” value in data set [1] is recorded as “effectively reduced fluorescent recovery half-time”. Moreover, in data set [2], the “fluorescent recovery time, BRPF1B FRAP (in words)” value was “reduced recovery times”. Moreover, the “N (ITC stoichiometry), BRD1” value on BRD1 (BRPF2) bromodomain is 1.127 ± 0.02. Besides, in data set [3], the “N (ITC stoichiometry), BRPF1B” value stood at 0.996 ± 0.002. Also, in data set [4], the “selectivity in temperature shift (ΔTm) panel (in words)” value is “excellent selectivity of 34 for BRPF1B/2 and TRIM24”. In data set [5], the “cytotoxicity in cancer cell lines (in words)” value was “no significant cytotoxicity”. Moreover, the “sensitivity of MCF-7 (in words)” value in [6] is reported as “resistant”. The “N (ITC stoichiometry), TRIM24” value in [7] came to 0.923 ± 0.003.
